Source: patent US11518805B2, “Binding inhibitor between TCTP dimer type IgE-dependent histamine releasing factor and receptor thereof, and use thereof” (EWHA UNIVERSITY—INDUSTRY COLLABORATION FOUNDATION, priority 2014, dated 2022)

Tests used:
HRF [1] = experiment: HRF binding affinity of heptamer peptides by ELISA (alanine scan of p2); conditions: p2 and its substituted heptamers m1-m7
From the text: In order to confirm the residues involved in the HRF binding affinity of the heptamer peptide of the present invention, the amino acid sequence of p2 was substituted with alanine (A), and only m5 was substituted with lysine (K). As a result, the following sequences were established: […]

CIA mouse model = experiment: Treatment effect of dTBP2 in CIA mouse model; assay type: in vivo, DBA1/j mice
[2] = tested on: CIA (collagen-induced arthritis) mouse model; experiment: Preventive effect of dTBP2 in CIA (collagen-induced arthritis) mouse model; assay type: in vivo, male DBA1/j mice; conditions: for joint thickness: preventive
HRF [3] = experiment: Phage clone ELISA for binding to immobilized HRF
Procedure: Particularly, HRF was dissolved in a coating buffer (0.1 M NaHCO 3, pH 8.6) at the concentration of 20 μg/ml, which was loaded in a polystyrene microtiter plate (50 ? /well), followed by coating at 4° C. for overnight and blocking non-specific binding with BSA. The plate was washed with 0.1% Tween/TBS (TBST) 6 times. […] The plate stood at room temperature for 1 hour. TBST was added thereto, and the plate stood for 5 minutes, followed by washing. The washing was performed once after one round of panning, 5 times after 2 and 3 rounds of panning, and 10 times after 4 rounds of panning. 50 ? of glycine/HCl buffer (pH 2.2) was added thereto, which stood for 5 minutes. Then, phages were eluted, and then neutralization was induced with 8 ? of 1 M Tris-HCl (pH 9.1). The eluted phage solution was added to 20 ? of ER2537 culture medium (OD600=0.5˜1), followed by culture in a 37° C. shaking incubator (rpm=200) for 2 hours. 100 ? of SB medium was added thereto, followed by culture for overnight with shaking (250 rpm). The culture solution was centrifuged at 10,000 rpm (4° C.) for 15 minutes. 100 ? of the obtained supernatant was added with 30 ? of 5×PEG/NaCl (20% PEG(w/v), 15% NaCl (w/v)), followed by dissolving for 5 minutes. The mixture was then left in ice for 30 minutes. The mixture was centrifuged at 10,000 rpm (4° C.) for 20 minutes and the supernatant was discarded. The obtained pellet was suspended in 1 ? of 3% BSA/TBS. After performing centrifugation at 14,000 rpm for 5 minutes, the supernatant was obtained and used for panning. Affinity purification and phage replication were repeated 4 times, followed by eluting phages. Each phage clone was obtained from the proper plate of the eluted phage, followed by ELISA. Those phage clones showing a specific affinity to HRF were separated, followed by sequencing to confirm the peptide sequence. Those phage display peptides showing dominant binding to HRF were selected and listed below:
That is, each phage plaque was added to 1 ? of the ER2537 culture medium (OD600=0.5˜1) cultured in SB medium, followed by culture in a 37° C. incubator (rpm=250) for 5 hours. 100 ? of each culture solution was added to 900 ? of SB medium, followed by culture for overnight. […]
Each phage solution separated above was diluted in an equal volume of 6% BSA/PBS, and 50 ? of the diluted solution was added to each well of the plastic well plate coated with HRF or BSA (control), which stood for 2 hours. […] After adding peroxidase substrate solution thereto (100 ? /well), OD405 was measured with an ELISA reader.
HRF was diluted serially by ⅕ fold each from the concentration of 20 μg/ ? […] The phage 2 solution diluted serially by ⅕ fold each (½, 1/10, 1/50, 1/250, and 1/1250 of the stock solution) was added thereto, followed by ELISA and OD405 was measured.

[4] = tested on: atopic dermatitis mouse model; experiment: Effect of dTBP2 in atopic dermatitis mouse model (Biostir AD); assay type: in vivo, female NC/Nga mice
Procedure: Particularly, 5 week old specific pathogen free female NC/Nga mice were purchased from Orientbio Inc. (Seoul, Korea), which were adapted for 1 week. After depilating with a hair removal agent, Biostir® AD ointment (Biostir, Japan) was used to induce atopic dermatitis on the dorsal skin. That is, hair was removed from the back of the mouse, on which 150 μl of 4% SDS dissolved in PBS was applied. After 2-3 hours of natural dry, 100 mg of Biostir® AD cream was evenly applied on the back skin and the ear skin of the mouse. The cream was applied twice a week, 6 times total for 3 weeks. It was confirmed that the skin layer of the mouse became thick and keratin was formed on the back skin.
To investigate the effect of dTBP2 on atopic dermatitis in the atopic dermatitis-induced mouse, the positive control was administered with PBS, the comparative experimental group was administered with protopic ointment (Astellas Pharma Manufacturing Inc., USA), and the experimental group was treated with dTPB2. On day 0, PBS (subcutaneous injection, 25 mg/kg), protopic ointment (skin application, 100 mg/mouse) and dTBP2 (subcutaneous injection, 25 mg/kg) were respectively applied. On day 1, 100 mg of Biostir® AD cream was applied thereto. On day 2 and day 3, PBS, protopic ointment, and dTBP2 were treated thereto by the same manner as performed on day 0. On day 4, 100 mg of Biostir® AD cream was applied thereto. On day 5, PBS, protopic ointment, and dTBP2 were treated thereto by the same manner as performed on day 0.
Atopic symptoms were observed and presented as points according to the atopic index such as erythema, drying, excoriation, edema, and erosion, based on which a graph was made (FIG. 32b, 0: no symptoms, 1: weak symptoms, 2: median symptoms, 3: severe symptoms). It was confirmed on the graph that atopy was minor in the group treated with protopic ointment and dTBP2, compared with the control.
Once atopic allergy is induced, the stratum corneum and skin layer become thick and the infiltration of inflammatory cells is increased. For the histological evaluation, hematoxylin/eosin staining and toluidine blue staining were performed. The thickness of the skin and the infiltration of immune related inflammatory cells were observed under microscope. As a result, the atopic symptoms including the thick stratum corneum were improved in the groups treated with protopic ointment and dTBP2, compared with the control group treated with PBS alone (FIGS. 34a and 34b).
Lymph node assay examining the effect of an antigen or a drug by observing the changes of lymph node weight was performed to investigate inflammatory reaction induced by skin sensitizing materials.

[5] = dTBP2 25 mg/kg s.c., protopic ointment 100 mg/mouse, vs PBS

## WYVYPSM (IgE-dependent histamine-releasing factor binding peptide2) [dTBP2, ID; NO: 24]
HRF [1]
  HRF binding affinity (rank order): p2, m6>m7>m3>m2>fm5>M1>m4
CIA mouse model; 5 mg of dTBP2 from day 41
  joint thickness: continuously increased
CIA mouse model; 25 mg of dTBP2 from day 41
  joint thickness: reduced
CIA mouse model; 25 mg of dTBP2 from day 41, vs vehicle alone or 5 mg
  arthritis clinical score: getting lower
[2]; 5 mg of dTBP2
  joint thickness: continuously increased until day 41 and rapidly increased from day 41 to day 46
[2]; 25 mg of dTBP2, three times a week, vs vehicle alone or 5 mg
  development of rheumatoid arthritis: inhibited more significantly
[2]; 25 mg of dTBP2
  joint thickness: almost as same as that of the normal until day 46
[2]; day 31, 25 mg of dTBP2, vs vehicle alone or 5 mg
  inhibition of incidence rate: at least 50%
[2]; day 46, 25 mg of dTBP2, vs vehicle alone or 5 mg
  inhibition of incidence rate: at least 70%
HRF [3]; HRF diluted until 0.4, 0.08, 0.016, and 0.032 μg/ml, phage solution serially diluted
  binding force to serially diluted HRF (ELISA, OD405): maintained its binding force to HRF
HRF [3]; wells coated with HRF or BSA (control)
  binding of phage clone to HRF (ELISA, OD405): specifically bind to HRF
[4]; [5]
  IL-4 mRNA level: significantly decreased
  IL-13 mRNA level: significantly decreased
  atopic symptoms including thick stratum corneum (H&E, skin thickness): improved
  histamine level: lower
  level of Th17A: lowered
  lymph node weight and size (lymph node assay): smaller in both weight and size than that of the PBS treated group
[4]; dTBP2 25 mg/kg s.c., protopic ointment 100 mg/mouse, vs positive control
  infiltration of mast cells (toluidine blue): significantly reduced
[4]; dTBP2 subcutaneous 25 mg/kg, protopic ointment 100 mg/mouse, vs control
  atopic symptoms as points (atopic index: erythema, drying, excoriation, edema, erosion): minor
[4]; dTBP2 subcutaneous 25 mg/kg, protopic ointment skin application 100 mg/mouse, vs control
  degree of atopy, visually confirmed: lesser degree of atopy than the control group
